Patent publication US20030181389A1, “Therapeutic and prophylactic use of reduced forms of pharmaceutical compounds” (priority 2000, published 2003)
Marks after values point to notes of the source that are not given here.

Legend:
[1] = adrenochrome system: auto-oxidation of dl-epinephrine; type: biochemical; settings: dl-epinephrine 500 μM, pH 10.2; for oxidation peak of Leucomethylene blue (665 nm) / effect on appearance of adrenochrome at 310 nm / oxidation peak of Leucothionine (605 nm): 50 μM; for appearance of adrenochrome (310 nm) in presence of leuco compound: leuco compound 50 μM; for appearance of adrenochrome (310 nm) in presence of leuco compound / effect on appearance of adrenochrome at 310 nm: 30° C.
Excerpt: In another experiment, the results of the experiment in Example 1 above were confirmed by using the adrenochrome system. In this system, dl-epinephrine is auto-oxidised under alkaline conditions by a superoxide dependent pathway. The reaction rate of this reaction can be decreased or interrupted by the addition of SOD, which scavenges superoxide. […] In this system, the rate of auto-oxidation of dl-epinephrine is decreased by the presence of either leuco compound, while the leuco compounds themselves are oxidised by superoxide in a rate dependent manner.
In this experiment, dl-epinephrine (500 μM) was allowed to auto-oxidise in 50 mM sodium carbonate buffer (pH 10.2) containing EDTA (100 μM) at 30° C. under these conditions, epinephrine is oxidised to adrenochrome (310 or 485 nm increase in absorption).

[2] = oxygen superoxide scavenging (recent research); type: biochemical; settings: stabilised leucomethylene blue
[3] = direct oxidation of leuco compounds by potassium superoxide; type: biochemical; settings: for final optical density leucomethylene blue (665 nm) / direct oxidation of the leuco compound by potassium superoxide / final optical density leucothionine (605 nm): approximately 10 μM, pH 7.8; for final optical density leucomethylene blue (665 nm) / final optical density leucothionine (605 nm): potassium superoxide; for colour change of the cell: after potassium superoxide addition; for direct oxidation of the leuco compound by potassium superoxide: EDTA 100 μM
Description: In a further experiment, potassium superoxide was added to a reaction cell containing buffers, EDTA and concentrations of leucothionine and leucomethylene blue. Direct oxidation of the leuco compounds was observed by superoxide.
Potassium superoxide was added directly to nitrogen gassed potassium phosphate buffer (pH 7.8) containing EDTA (100 μM) and approximately 10 μM concentration of leucothionine and leucomethylene blue.
Due to the effervescence of the cell, a known property of potassium superoxide in water, no measurements were possible in the first 4 minutes of the reaction.

[4] = xanthine/xanthine oxidase superoxide assay: oxidation of leuco compounds, with SOD added after sixth minute; type: biochemical; settings: for effect of addition of SOD on rate of oxidation of the leuco compound: 5 units of SOD added after the sixth minute; for oxidation of leucomethylene blue (665 nm), rate of change of optical density / oxidation of leucothionine (605 nm), rate of change of optical density: 12.5 μM
Excerpt: The principle upon which the following assay is based is that the enzyme xanthine oxidase acts on xanthine to oxidise xanthine and thereby to reduce ferricytochrome C by a mechanism which, at least partly, involves superoxide. Thus, the reduction (and increase) in optical density of ferricytochrome C is dependent on superoxide as a reductant. The inclusion of superoxide dismutase (“SOD”) in the assay serves to dismutate some of the available superoxide, thus causing a decrease in the rate of reduction of ferricytochrome C. […]
Superoxide is a single electron reductant or oxidant.
To explore the effect of leucothionine and leucomethylene blue, these compounds were mixed at 12.5 μM concentration in 50 mM potassium phosphate buffer (pH 7.8) with xanthine (50 μM) and EDTA (100 μM) buttermilk xanthine oxidase (around […]) was then added to give a rate of increase in absorbance of about 0.1 optical density units (for methylene blue at 665 nm and for thionine at 605 nm) per minute at 30° C. above controls using leucothionine or leucomethylene blue, potassium phosphate buffer, xanthine and EDTA alone.

haemoglobin = settings: chronic toxicity studies, laboratory animals; cited from earlier work
[5] = minute 1, before SOD, pH 7.8, 30° C.
[6] = minute 2, before SOD, pH 7.8, 30° C.
[7] = minute 3, before SOD, pH 7.8, 30° C.
[8] = minute 4, before SOD, pH 7.8, 30° C.
[9] = minute 5, before SOD, pH 7.8, 30° C.
[10] = minute 6, before SOD, pH 7.8, 30° C.
[11] = minute 7, after addition of 5 units of SOD
[12] = minute 8, after addition of 5 units of SOD
[13] = minute 9, after addition of 5 units of SOD
[14] = minute 10, after addition of 5 units of SOD
[15] = minute 11, after addition of 5 units of SOD
[16] = minute 12, after addition of 5 units of SOD

## CN(C)c1ccc2c(c1)Sc1cc(N(C)C)ccc1N2 [leucomethylene blue]
[1]; 0 minutes
  oxidation peak of Leucomethylene blue (665 nm): 0.006
  appearance of adrenochrome (310 nm) in presence of leuco compound: 0.005
[1]
  effect on appearance of adrenochrome at 310 nm: effective in reducing the appearance of adrenochrome
[1]; 1 minute
  oxidation peak of Leucomethylene blue (665 nm): 0.093
  appearance of adrenochrome (310 nm) in presence of leuco compound: 0.031
[1]; 2 minutes
  oxidation peak of Leucomethylene blue (665 nm): 0.110
  appearance of adrenochrome (310 nm) in presence of leuco compound: 0.021
[1]; 3 minutes
  oxidation peak of Leucomethylene blue (665 nm): 0.120
  appearance of adrenochrome (310 nm) in presence of leuco compound: 0.030
[1]; 4 minutes
  oxidation peak of Leucomethylene blue (665 nm): 0.116
  appearance of adrenochrome (310 nm) in presence of leuco compound: 0.035
[1]; 5 minutes
  oxidation peak of Leucomethylene blue (665 nm): 0.121
  appearance of adrenochrome (310 nm) in presence of leuco compound: 0.031
[1]; 6 minutes
  oxidation peak of Leucomethylene blue (665 nm): 0.119
  appearance of adrenochrome (310 nm) in presence of leuco compound: 0.038
[2]
  oxygen superoxide scavenging: powerful oxygen superoxide scavenger
[3]; 0 minutes
  final optical density leucomethylene blue (665 nm): 0.015
[3]; 5 minutes
  final optical density leucomethylene blue (665 nm): 0.38
[3]; 6 minutes
  final optical density leucomethylene blue (665 nm): 0.44
[3]; 7 minutes
  final optical density leucomethylene blue (665 nm): 0.46
[3]; 8 minutes
  final optical density leucomethylene blue (665 nm): 0.44
[3]
  colour change of the cell: colourless to blue
  direct oxidation of the leuco compound by potassium superoxide: rapidly oxidised to their coloured oxidised states
[4]
  effect of addition of SOD on rate of oxidation of the leuco compound: decreased the rate of oxidation
[4]; [5]
  oxidation of leucomethylene blue (665 nm), rate of change of optical density: 0.096
[4]; [6]
  oxidation of leucomethylene blue (665 nm), rate of change of optical density: 0.102
[4]; [7]
  oxidation of leucomethylene blue (665 nm), rate of change of optical density: 0.110
[4]; [8]
  oxidation of leucomethylene blue (665 nm), rate of change of optical density: 0.101
[4]; [9]
  oxidation of leucomethylene blue (665 nm), rate of change of optical density: 0.099
[4]; [10]
  oxidation of leucomethylene blue (665 nm), rate of change of optical density: 0.103
[4]; [11]
  oxidation of leucomethylene blue (665 nm), rate of change of optical density: 0.030 *
[4]; [12]
  oxidation of leucomethylene blue (665 nm), rate of change of optical density: 0.017
[4]; [13]
  oxidation of leucomethylene blue (665 nm), rate of change of optical density: 0.014
[4]; [14]
  oxidation of leucomethylene blue (665 nm), rate of change of optical density: 0.013
[4]; [15]
  oxidation of leucomethylene blue (665 nm), rate of change of optical density: 0.010
[4]; [16]
  oxidation of leucomethylene blue (665 nm), rate of change of optical density: 0.010

## Nc1ccc2c(c1)Sc1cc(N)ccc1N2 [leucothionine]
[1]; 0 minutes
  oxidation peak of Leucothionine (605 nm): 0.007
  appearance of adrenochrome (310 nm) in presence of leuco compound: 0.005
[1]
  effect on appearance of adrenochrome at 310 nm: effective in reducing the appearance of adrenochrome
[1]; 1 minute
  oxidation peak of Leucothionine (605 nm): 0.083
  appearance of adrenochrome (310 nm) in presence of leuco compound: 0.034
[1]; 2 minutes
  oxidation peak of Leucothionine (605 nm): 0.121
  appearance of adrenochrome (310 nm) in presence of leuco compound: 0.027
[1]; 3 minutes
  oxidation peak of Leucothionine (605 nm): 0.110
  appearance of adrenochrome (310 nm) in presence of leuco compound: 0.033
[1]; 4 minutes
  oxidation peak of Leucothionine (605 nm): 0.114
  appearance of adrenochrome (310 nm) in presence of leuco compound: 0.034
[1]; 5 minutes
  oxidation peak of Leucothionine (605 nm): 0.116
  appearance of adrenochrome (310 nm) in presence of leuco compound: 0.028
[1]; 6 minutes
  oxidation peak of Leucothionine (605 nm): 0.120
  appearance of adrenochrome (310 nm) in presence of leuco compound: 0.032
[3]; 0 minutes
  final optical density leucothionine (605 nm): 0.035
[3]; 5 minutes
  final optical density leucothionine (605 nm): 0.42
[3]; 6 minutes
  final optical density leucothionine (605 nm): 0.45
[3]; 7 minutes
  final optical density leucothionine (605 nm): 0.45
[3]; 8 minutes
  final optical density leucothionine (605 nm): 0.46
[3]
  colour change of the cell: purple
  direct oxidation of the leuco compound by potassium superoxide: rapidly oxidised to their coloured oxidised states
[4]
  effect of addition of SOD on rate of oxidation of the leuco compound: decreased the rate of oxidation
[4]; [5]
  oxidation of leucothionine (605 nm), rate of change of optical density: 0.086
[4]; [6]
  oxidation of leucothionine (605 nm), rate of change of optical density: 0.093
[4]; [7]
  oxidation of leucothionine (605 nm), rate of change of optical density: 0.093
[4]; [8]
  oxidation of leucothionine (605 nm), rate of change of optical density: 0.095
[4]; [9]
  oxidation of leucothionine (605 nm), rate of change of optical density: 0.101
[4]; [10]
  oxidation of leucothionine (605 nm), rate of change of optical density: 0.096
[4]; [11]
  oxidation of leucothionine (605 nm), rate of change of optical density: 0.041 *
[4]; [12]
  oxidation of leucothionine (605 nm), rate of change of optical density: 0.009
[4]; [13]
  oxidation of leucothionine (605 nm), rate of change of optical density: 0.009
[4]; [14]
  oxidation of leucothionine (605 nm), rate of change of optical density: 0.011
[4]; [15]
  oxidation of leucothionine (605 nm), rate of change of optical density: 0.008
[4]; [16]
  oxidation of leucothionine (605 nm), rate of change of optical density: 0.009

## CN(C)c1ccc2nc3ccc(=[N+](C)C)cc-3sc2c1 [methylene blue]
haemoglobin
  haematological toxicity on repeated administration of high doses: causes oxidation of haemoglobin to methaemoglobin and tissue accumulation of Heinz bodies
